Measured values from US12168676B2, “Microbially derived peptides and proteins for immunotherapy” (Genevive, Inc., priority 2019, dated 2024).
“Also recorded” adds a separate entry of the source.

Assays:
[1] = test system: T cells isolated from mouse spleens; assay: Mouse T cell activation, anti-CD3 coated plates (Example 4); assay type: cell-based; settings: 10 mcM peptide, anti-CD3 0.1 mcg/mL, 48 hours
Protocol: 96-well culture plates were pre-coated with anti-CD3 (0.1 mcg/mL) in 200 mcL. The plates were incubated overnight at 4° C. The plates were washed with PBS three times before plating the cells (Balb/c splenocytes for T-cell isolation by EasySep™ #19851). The cells were plated at 100-200K/well in final volume of 200 mcL of AIM-V. Peptides (10mcM) or 2 mcg/mL anti-CD28 were added to the cells. The cells were incubated for 48 hours at 37° C.
The incubated cells were used for flow cytometry analysis. SG-3-0020 increased expression of T cell activation markers and proliferation of CD4 and CD8 T cells isolated from mouse spleens (FIG. 11A).
The supernatants were used for MSD analysis. SG-3-0020 increased secretion of effector cytokines by T cells isolated from mouse spleens. (FIG. 11B)

human T cells [2] = assay: Human T cell activation assay, anti-CD3 stimulated purified T cells (Example 2); assay type: cell-based
Protocol: PBMCs were obtained from 5 individual human donors. […] Furthermore, incubation of the T cells with SG-3-0020 increased secretion of IL-2 and IFN-γ (FIG. 6B). […] Such activation may enhance immune action against a tumor in vivo with or without a co-therapy.

[3] = test system: CT26 tumor-bearing Balb/c mice; assay: Tumor infiltrating lymphocyte composition/activation in CT26 tumor-bearing Balb/c mice (Examples 3 and 9); assay type: in vivo, mouse
Protocol: In vivo studies were performed to study the effects of SG-3-0020 administration on, e.g., immune cell activation and tumor size and to test different routes of administration of SG-3-0020 in CT26 tumor-bearing Balb/c mice and its effects on immune modulation. This mouse model is one of the most widely used mouse models for preclinical testing of new immunotherapeutic drugs (Grosso and Jure-Kunkel, 2013, Cancer Immun, 13:5).
Mice were dosed i.v., i.p., p.t. with SG-3-0020 or PBS. For comparison mice were dosed with CD80-Fc or IgG1-Fc i.v. On Day 7, tumor samples were analyzed for tumor infiltrating lymphocyte (TIL) composition/activation by flow cytometry. The protocol used in this experiment is illustrated in FIG. 7A.
BALB/c male mice (n=5-6/group, 8 weeks of age) were inoculated s.c. with CT26 colon carcinoma cells. SG-B was administered in PBS peritumorally daily at 2.5 mg/kg. Control mice were injected with the corresponding volume of PBS. At Day 13 (AH1 staining)) or Day 7 (Ki67, CD25, OX40 staining) excised tumors were washed with PBS, dissected into smaller fragments using scalpels, and further dissociated into single cell suspensions using the Miltenyi Tumor Dissociation Kit and the GentleMACS Octo dissociator. The digested tumors were filtered through pre-separation filters, washed with PBS, and then used for flow cytometry-based analysis. T lymphocytes were gated as CD4^+ or CD8^+ and then analyzed for surface marker expression by FlowJo 10.5.3. p values calculated by Mann-Whitney test.

activated human T cell = assay: NanoString nCounter Human PanCancer Immune profiling of activated T cells (Example 6); assay type: cell-based; settings: RNA, T cells of 5 donors, 10 μM vs vehicle
Protocol: T cells were isolated from 5 individual blood donors and activated as described previously. RNA expression levels were determined by the NanoString nCounter Human PanCancer Immune profiling.

CT26 mouse model = assay: CT26 mouse model, tumor volume, monotherapy; assay type: in vivo; settings: preliminary results, data not shown
human T cells [4] = assay: Phage binding to T cells, titers of eluted phages (Example 7)
Protocol: The binding of SG-3-0020 phages to target cells (naïve T-cell, activated T-cell) was tested.
Biotinylated peptide stock (1 mM) was diluted to 1 uM (×1,000-fold) with 1×PBS+2% BSA. 150 mcL of phages (multivalent display) were mixed with 70 mcL of 1×PBS+2% BSA. The solution was rotated at room temperature for 1 hour.
The cells, either naïve T-cells (about 13×10^6 cells) or activated T-cells (about 16×10^6 cells) were thawed. The cells were then centrifuged at 1,500 for 5 min at 4° C., and the supernatant was aspirated. The cell pellets were washed with 5 mL of 1×PBS+2% BSA by pipetting. This was repeated such that the pellets were centrifuged and washed a total of 3 times.
The cell pellets were resuspended with 1050 mcL of 1×PBS+2% BSA, and 100 mcL of phage (M13 bacteriophage G8P capsid antibody-FITC from antibodies-online Inc (Cat #: ABIN 125966)) were added into a well of 96-well plates (phage binding). 150 mcL of diluted biotinylated peptide were added into a well of 96-well plates (biotinylated peptide binding). 100 mcL of resuspended cells were added into the wells for phage binding and 50 mcL of resuspended cells were added into the wells for biotinylated peptide binding.
The cells were put on the rocker and incubated at 4° C. for 2 hours for binding and then centrifuged at 1,500 for 5 min at 4° C. The supernatant was discarded. […]

[5] = test system: Splenocytes isolated from naive male C57BL/6 mice; assay: Stimulation of murine naïve splenocytes (Example 1); assay type: cell-based, mouse; settings: 10 μM peptide
Source text: This example describes an initial screening assay to identify Bifidobacterium-derived peptides which can activate effector T cells, specifically, CD4 effector T cells which are characterized in part by a CD4^+ CD25^+ FoxP3^− phenotype and CD8 effector cells which are characterized in part by a CD8^+ CD25^+ FoxP3^− phenotype. Splenocytes isolated from naive male C57BL/6 mice (Taconic, 8-14 weeks of age) were resuspended in complete RPMI (RPMI containing 10% FBS plus 1% penicillin/streptomycin) to a final number of 8×10^5 cells/well in a flat-bottom 96-well plate. Cells were then stimulated with 0.05 μg/ml anti-CD3 antibody in the presence of: each peptide (10 μM in water) or ovalbumin peptide amino acids 323-339 (10 μM in water), water (Th0 min H2O), anti-CD3 antibody alone (Th0 min), or with 1 μg/ml anti-CD3, plus IL-12 (10 ng/ml), plus 5 μg/ml anti-IL-4 antibody (positive control to generate Th1 cells). Cells were incubated at 37° C., 5% CO2 for 48 h. See. FIG. 2A, FIG. 2B, and FIG. 2C.
Levels of activated (Tact) CD4 (FIG. 2A) and CD8 (FIG. 2B) T cells, defined by absence of FoxP3 and high CD25 expression, were determined by multicolor flow cytometry. Levels of T cells were then normalized to levels of the T cells when the splenocytes were treated with the OV323-339 negative control peptide. See Levels of IL-2 (FIG. 2C) and IL-17 (FIG. 2D) in culture supernatants were quantified by Luminex analysis. Levels of Granzyme B expression on gated CD8 FoxP3^− T cells were analyzed by flow cytometry. Bars represent mean±SD. (vs. Th0+H2O) by Kruskall-Wallis with uncorrected Dunn's test.
A dose response study was also performed using the above methods wherein naïve mouse splenocytes were treated with increasing doses of SG-3-0020 (1 μM, 5 μM, or 10 μM). Flow cytometry analysis was done to measure frequency of effector CD8 T cells (CD8^+, CD25^+, FoxP3), granzyme B expression on the effector CD8 T cells, and IL-2 expression.

PBMCs = assay: Activation marker expression with or without anti-CD3, PBMCs (Example 5); assay type: cell-based, human; settings: 10 mcM, with or without 0.1 mcg/mL anti-CD3, 48 hours
Protocol: (§1) Activation marker expression on T cells and PBMCs in the presence of peptides (10mcM) or anti-CD28 (10 mcg/mL) was determined after 48 hours of incubation, with or without 0.1 mcg/mL anti-CD3. The data were analyzed by flow cytometry (FIG. 13A-D).

human T cells [6] = assay: Activation markers and cytokine secretion with or without anti-CD3, or with CD3/CD28 activator, T cells (Example 5); assay type: cell-based
Protocol: as §1
Cytokine secretion on T cells in the presence of peptides (10mcM) or anti-CD28 (10 mcg/mL) after 48 h of incubation, with or without 0.1 mcg/mL anti-CD3, was determined. The data were analyzed by MSD (FIG. 14).
Human T cells were activated with ImmunoCult™ Human CD3/CD28 T Cell Activator in the presence of peptides (10mcM) and cytokine secretion was analyzed after 48 hours of incubation by MSD. […] Activation with anti-CD3 on both isolated T cells and PBMCs was required for SG-3-0020-mediated effects.

[7] = anti-CD3 stimulated purified T cells
[8] = anti-CD3 stimulated purified T cells, 5 donors
[9] = vs activated T cells without SG-3-0020, data not shown
[10] = peri-tumoral injections twice daily (b.i.d.)
[11] = 0.05 μg/ml anti-CD3, 48 h, flow cytometry

With “SG-3-0020: Bifidobacterium breve-derived peptide, SEQ ID NO:1 MLSTKKTKTHDHYPCGRMRDPGWHDWRACLTHQGIEEDEWPV, chemically synthesized for the Examples (Bifidobacterium breve)” the “secretion of effector cytokines” value ([1]; MSD) was “increased”, the “expression of T cell activation markers” value ([1]; flow cytometry) was “increased” and the “proliferation of CD4 and CD8 T cells” value ([1]; flow cytometry) was “increased”. The IFN-γ secretion (human T cells [2]; [7]) was “increased”, the IL-2 secretion (human T cells [2]; [7]) was “increased” and the IL-10 secretion (human T cells [2]; [7]) was “increase”. For the same substance, the TNF-α secretion (human T cells [2]; [7]) was “increase”, the “PD-1 expression on CD4+ cells” value (human T cells [2]; [8]) was “increased” and the “PD-1 expression on CD8+ cells” value (human T cells [2]; [8]) was “increased”. For the same substance, the “cytokine-stimulating activity, donors responding” value (human T cells [2]; purified T cell system in the presence of anti-CD3 antibody) was 5/5, the “CD4+CD25+ T cells” value (human T cells [2]; [9]) was “increase” and the “CD4+ICOS+ T cells” value (human T cells [2]; [9]) was “increase”. The “CD4+OX40+ T cells” value (human T cells [2]; [9]) was “increase”, the “CD8+ICOS+ T cells” value (human T cells [2]; [9]) was “increase” and the “CD8+OX40+ T cells” value (human T cells [2]; [9]) was “increase”. For the same substance, the “CD8CD25+ T cells” value (human T cells [2]; [9]) was “increase”, the “CD8+CD25+ cells in tumor infiltrating lymphocytes” value ([3]; Day 7, flow cytometry) was “increase” and the “CD8+Ki67+ cells in tumor infiltrating lymphocytes” value ([3]; Day 7, flow cytometry) was “increase”. For the same substance, the “CD8+OX40+ cells in tumor infiltrating lymphocytes” value ([3]; Day 7, flow cytometry) was “increase”, the “NK cells in tumor infiltrating lymphocytes” value ([3]; Day 7, flow cytometry) was “increase” and the “Tetramer staining (AH1 epitope)” value ([3]; Day 13) was “positive effect”. The “activated CD8+ T cell frequency within the TIL compartment” value ([3]; mouse, in vivo) was “increases”, the “NK cell frequency in the TIL compartment” value [3, 10] was “increase” and the “activated CD8+ T cell frequency in the TIL compartment” value [3, 10] was “increase”. The CD96 expression (activated human T cell) was “decrease”, the CTSL expression (activated human T cell) was “increase” and the CXCL10 expression (activated human T cell) was “decrease”. For the same substance, the CXCR6 expression (activated human T cell) was “decrease”, the DUSP6 expression (activated human T cell) was “increase” and the GZMK expression (activated human T cell) was “decrease”. The IL-2 expression (activated human T cell) was “increase”, the IL-3 expression (activated human T cell) was “increase” and the IL-9 expression (activated human T cell) was “increase”. For the same substance, the IL-10 expression (activated human T cell) was “increase”, the IL-21 expression (activated human T cell) was “increase” and the IL-24 expression (activated human T cell) was “increase”. The IRF1 expression (activated human T cell) was “decrease”, the ISG20 expression (activated human T cell) was “decrease” and the LY9 expression (activated human T cell) was “decrease”. The SLAMF7 expression (activated human T cell) was “decrease”, the SMAD3 expression (activated human T cell) was “decrease” and the STAT1 expression (activated human T cell) was “decrease”. The TCF7 expression (activated human T cell) was “decrease”, the tumor volume (CT26 mouse model) was “decrease” and the “binding to human T cells” value (human T cells [4]; FIG. 17, phage titer) was “binds”. For the same substance, the “phage titer, binding to the activated T-cells compared to empty phages” value (human T cells [4]; multivalent display phage, 4° C., 2 hours) was “more bound”, the “frequency of activated (Tact) CD4 T cells (CD25+/FoxP3-)” value [5, 11] was “increase; also recorded: enhance” and the “frequency of activated (Tact) CD8 T cells (CD25+/FoxP3-)” value [5, 11] was “increase; also recorded: enhance”. The “IL-2 secretion in culture supernatants” value ([5]; 48 h, Luminex) was “facilitate”, the “IL-17 secretion in culture supernatants” value ([5]; 48 h, Luminex) was “facilitate” and the “Granzyme B expression in CD8 T cells” value ([5]; 48 h, flow cytometry) was “promote induction”. The “dependence of SG-3-0020-mediated effects on activation with anti-CD3, PBMCs” value (PBMCs) was “required”, the “dependence of SG-3-0020-mediated effects on activation with anti-CD3, isolated T cells” value (human T cells [6]; 10 mcM, with or without 0.1 mcg/mL anti-CD3, 48 hours) was “required” and the “cytokine secretion in combination with anti-CD28 activation” value (human T cells [6]; ImmunoCult Human CD3/CD28 T Cell Activator, 10 mcM peptide, 48 hours, MSD) was “increases activity”.
